Measured values published in patent publication US20230000872A1, “TRPA1 ANTAGONIST FOR THE TREATMENT OF PAIN ASSOCIATED TO DIABETIC NEUROPATHIC PAIN” (Glenmark Pharmaceuticals S.A., priority 2014, published 2023).

Assays:
[1] = system: subjects with painful DPN; test: Phase II clinical study of Compound I 250 mg BID, 4 weeks, in subjects with painful diabetic neuropathy (Example 1); type: in vivo, human; set-up: key to Mean API score (24-hour): 11-point pain intensity NRS (0–10); key to Night-time API Score, mean score: API score on 11-point pain intensity NRS (0–10); conditions: for Sleep interference score, mean score: 11-point scale; for API Score, mean score: 11-point NRS; for % subject population with >30% Reduction from baseline API Score / % subject population with >50% Reduction from baseline API Score: end of 4 week treatment
From the text: Example 1: A Phase II Clinical Study to Evaluate Efficacy, Safety and Tolerability of Compound I in Subjects With Painful Diabetic Neuropathy
• To assess the efficacy of Compound I in the treatment of pain associated with diabetic peripheral neuropathy (DPN). • To evaluate the safety and tolerability of Compound I administered once daily (OD) or twice daily (BID) in subjects with painful DPN. • To investigate effect of Compound I on time to sustained improvement in pain, night-time pain, intensity of pain on neuropathic pain symptoms inventory (NPSI), and sleep in subjects with painful DPN. • To evaluate number of subjects who are responders on the […] of Change (PGIC) Questionnaire, Clinician Global Impression of Change (CGIC) Questionnaire; and number of subjects who achieve various levels of percent reduction in pain. • To investigate the pharmacokinetics (PK) of Compound I in subjects with DPN • To investigate effect of Compound I on the use of rescue medication (ibuprofen 400 mg to 600 mg four times a day or paracetamol 500 mg to 1000 mg two to three times a day) in subjects with painful DPN • To investigate effect of Compound I in subjects with painful DPN who have mechanical hyperalgesia and/or cold allodynia.
This was a multi-center, randomized, double-blind, placebo-controlled, parallel group, 4 week study of Compound I 250 mg BID in subjects with painful DPN. The study included a total of 138 subjects with DPN, randomized in a 1:1 ratio into 250 mg BID Compound I or Placebo. The study was conducted for a total period of 9 weeks as: up to a 2-week screening/washout period, a 1-week placebo-run in period, 4 weeks of treatment period and 2 weeks of follow-up period.
• Men and women (post-menopausal/surgically sterile only) aged between 18-75 (both inclusive) years • Subjects having diabetes mellitus (type 1 or 2) with a distal symmetric chronic sensorimotor painful peripheral neuropathy • A history of DPN pain for at least 6 months and no greater than 5 years. • DN4 “Douleur Neuropathique en 4” questions score of ≥4 • A baseline 24-hour average daily pain intensity score ≥4 and <9 as measured on a 11-point pain intensity NRS (numeric rating scale) • Subjects having stable glycemic control for at least one or two or three months prior to randomization having HbAlc (Glycosylated Hemoglobin) <8% • Subjects detected to have mechanical hyperalgesia and/or cold allodynia (detected with appropriate methodology)
Study medications were: • Placebo matching 250 mg Compound I during the placebo run-in period was taken orally BID in a fed state (30 minutes after breakfast/dinner) every day for day −7 to day −1 during Run-in period. The time interval between 2 consecutive doses must be 12 hours±60 min • 250 mg Compound I potassium granules or matching placebo during day-1 to day-28 treatment period. The time interval between 2 consecutive doses was 12 hours±60 min. • Reference therapy: Placebo to match investigational product, administered BID.
Clinical Endpoints were: • Change from baseline to end of treatment (i.e., baseline to end of week 4) in the mean 24-hour API score based on an 11-point pain intensity NRS • Change from baseline at the end of week 1, 2, 3, 4 and 6 in: • Mean night-time API (average pain intensity) Score (subject diary): night-time is defined as the time between going to bed at night and rising in the morning • Mean night-time worst pain intensity Score (subject diary): worst pain is defined as the subject's assessment of their worst pain intensity for the time period • Mean sleep interference Score (subject diary): A 11-point scale that asks subjects to select the score that best describes how much the pain interfered with sleep during the past 24 hours.

[2] = system: subjects with painful DPN and having preserved peripheral nerve function; test: Phase II clinical study of Compound I 250 mg BID, 4 week treatment plus 2 weeks follow up, in subjects with painful DPN and preserved peripheral nerve function (Example 2); type: in vivo, human
From the text: Example 2: A Phase II Clinical Study to Evaluate Efficacy, Safety and Tolerability of Compound I in Subjects With Painful Diabetic Neuropathy
• Objectives of this study were To assess the safety, efficacy and tolerability of Compound I in the treatment of pain associated with diabetic peripheral neuropathy (DPN) and to evaluate efficacy of Compound I administered once daily (OD) or twice daily (BID) in subjects with painful DPN and having preserved peripheral nerve function and to investigate effect of Compound I on time to sustained improvement in pain, night-time pain, intensity of pain on neuropathic pain symptoms inventory (NPSI), and sleep in subjects with painful DPN and having preserved peripheral nerve function. • This was a randomized, double-blind, placebo-controlled, parallel group, 4 week treatment followed by 2 weeks follow up study of Compound I 250 mg and placebo BID in subjects with painful DPN and having preserved peripheral nerve function. The study included a total of 136 subjects with DPN and having preserved peripheral nerve function. • Clinical Endpoints were change from baseline in mean 24-hour API score based on an 11-point pain intensity NRS at the end of week 4 and week 6 in • In ITT ([…]) population and • In subject having one or more from baseline average pain intensity (API) score of ≥5, Cold detection threshold >18° C. at baseline as determined by QST and Warm detection threshold <49° C. at baseline as determined by QST

[3] = Sub-group: Hypersensitivity to cold stimulus and/or mechanical stimulus, Week 4
[4] = Sub-group: Moderate to severe pain (NRS score 5-8) and hypersensitivity to cold stimulus and/or mechanical stimulus, Week 4
[5] = Sub-group: Moderate to severe pain (NRS score 5-8) and preserved peripheral sensory neurons, Week 4
[6] = Sub-group: Moderate to severe pain (NRS score 5-8), Week 4
[7] = Sub-group: Preserved peripheral sensory neurons (non-denervation by QST), Week 4
[8] = Week 0 (baseline), 250 mg BID oral
[9] = Week 4 vs baseline, 250 mg BID oral
[10] = Sub-group: Hypersensitivity to cold stimulus and/or mechanical stimulus
[11] = Sub-group: Moderate to severe pain (NRS score 5-8)
[12] = Sub-group: Moderate to severe pain (NRS score 5-8) and hypersensitivity to cold stimulus and/or mechanical stimulus
[13] = Sub-group: Moderate to severe pain (NRS score 5-8) and preserved peripheral sensory neurons
[14] = Sub-group: preserved peripheral sensory neurons
[15] = subjects with one or more of baseline API score ≥5, Cold detection threshold >18° C., Warm detection threshold <49° C. (QST), Week 4
[16] = subjects with one or more of baseline API score ≥5, Cold detection threshold >18° C., Warm detection threshold <49° C. (QST), Week 6

With `Cn1c(=O)c2c(CC(=O)Nc3nc(-c4ccc(F)c(C(F)(F)F)c4F)cs3)csc2n(C)c1=O` [Compound I, N-{4-[2,4-difluoro-3-(trifluoromethyl)phenyl]-1,3-thiazol-2-yl}-2-(1,3-dimethyl-2,4-dioxo-1,2,3,4-tetrahydrothieno[2,3-d]pyrimidin-5-yl)acetamide] the “Onset of Sustained improvement in 24-hour API Score” value ([1]; 250 mg BID oral) was “Score is achieved in 18 days”, the “Mean API score (24-hour)” value ([1]; Sub-group: Hypersensitivity to cold stimulus and/or mechanical stimulus, Week 0 (baseline)) was 6.1 and the “API score % Reduction from baseline” value [1, 3] was 32.78%. The “Mean API score (24-hour)” value [1, 3] was 4.1, the “Mean API score (24-hour)” value ([1]; Sub-group: Moderate to severe pain (NRS score 5-8) and hypersensitivity to cold stimulus and/or mechanical stimulus, Week 0 (baseline)) was 6.5 and the “API score % Reduction from baseline” value [1, 4] was 36.92%. The “Mean API score (24-hour)” value [1, 4] was 4.1, the “Mean API score (24-hour)” value ([1]; Sub-group: Moderate to severe pain (NRS score 5-8) and preserved peripheral sensory neurons, Week 0 (baseline)) was 6.4 and the “API score % Reduction from baseline” value [1, 5] was 35.93%. The “Mean API score (24-hour)” value [1, 5] was 4.1, the “Mean API score (24-hour)” value ([1]; Sub-group: Moderate to severe pain (NRS score 5-8), Week 0 (baseline)) was 6.3 and the “API score % Reduction from baseline” value [1, 6] was 33.33%. The “Mean API score (24-hour)” value [1, 6] was 4.2, the “Mean API score (24-hour)” value ([1]; Sub-group: Preserved peripheral sensory neurons (non-denervation by QST), Week 0 (baseline)) was 6.2 and the “API score % Reduction from baseline” value [1, 7] was 33.33%. For the same compound, the “Mean API score (24-hour)” value [1, 7] was 4.1, the “Mean daily dose of rescue medication” value [1, 8] was 425 mg and the “Night-time API Score, mean score” value [1, 8] was 5.1. The “Night-time Worst pain intensity Score, mean score” value [1, 8] was 5.3, the “Sleep interference score, mean score” value [1, 8] was 4.5 and the “API Score, mean score” value ([1]; Week 0, 250 mg BID oral) was 6.0. For the same compound, the “Mean daily dose of rescue medication” value ([1]; Week 4, 250 mg BID oral) was 111 mg, the “Night-time API Score, mean score” value ([1]; Week 4, 250 mg BID oral) was 3.4 and the “Night-time Worst pain intensity Score, mean score” value ([1]; Week 4, 250 mg BID oral) was 3.5. For the same compound, the “API Score, mean score” value ([1]; Week 4, 250 mg BID oral) was 4.1, the “Sleep interference score, mean score” value ([1]; Week 4, 250 mg BID oral) was 2.7 and the “API Score, % Reduction” value ([1]; Week 4 vs Week 0, 250 mg BID oral) was 31.66%. The “Change in mean daily dose of rescue medication, % Reduction” value [1, 9] was 73.8%, the “Night-time API Score, % Reduction” value [1, 9] was 33.33% and the “Night-time Worst pain intensity Score, % Reduction” value [1, 9] was 33.96%. For the same compound, the “Sleep interference score, % Reduction” value [1, 9] was 40%, the “% subject population with >30% Reduction from baseline API Score” value (“% subject population with >30% Reduction” for short) [1, 10] was 59.1% and the “% subject population with >50% Reduction from baseline API Score” value (shortened to “% subject population with >50% Reduction”) [1, 10] was 36.4%. The “% subject population with >30% Reduction” value [1, 11] was 58.6%, the “% subject population with >50% Reduction” value [1, 11] was 34.5% and the “% subject population with >30% Reduction” value [1, 12] was 66.7%. The “% subject population with >50% Reduction” value [1, 12] was 44.4%, the “% subject population with >30% Reduction” value [1, 13] was 56.7% and the “% subject population with >50% Reduction” value [1, 13] was 40.0%. For the same compound, the “% subject population with >30% Reduction” value [1, 14] was 52.9%, the “% subject population with >50% Reduction” value [1, 14] was 35.3% and the “Mean API score” value ([2]; ITT population, Week 0 (baseline)) was 6.0. The “API score % Reduction from baseline” value ([2]; ITT population, Week 4) was 32.16%, the “Mean API score” value ([2]; ITT population, Week 4) was 4.07 and the “API score % Reduction from baseline” value ([2]; ITT population, Week 6) was 40.16%. For the same compound, the “Mean API score” value ([2]; ITT population, Week 6) was 3.59, the “Mean API score” value ([2]; subjects with one or more of baseline API score ≥5, Cold detection threshold >18° C., Warm detection threshold <49° C. (QST), Week 0 (baseline)) was 5.0 and the “API score % Reduction from baseline” value [2, 15] was 49.6%. The “Mean API score” value [2, 15] was 2.52, the “API score % Reduction from baseline” value [2, 16] was 66.2% and the “Mean API score” value [2, 16] was 1.69.
